Data set [1] has as its system U937 cells. Put plainly: In vivo anti-tumor activity, U937 subcutaneous tumor in mice. The procedure:
Animal model: 4-6 weeks old Male CB-17 SCID mice
U937 cells were cultured in vitro (1640+10% FBS+1% dual antibody) and amplified to 50 plates (10 cm). The cells were collected into a 50 mL centrifuge tube, centrifuged at 800 rpm for 5 minutes. The supernatant was discarded, and the cells was enriched into a 50 mL sterile centrifuge tube, washed once with PBS, and centrifuged at 800 rpm for 5 minutes. The cells were suspended with an appropriate amount of sterile PBS, counted and diluted to 2×10^7 cells/mL; 0.2 mL cells per animal were inoculated subcutaneously in the right anterior axilla of the animal (preferably inoculated before the animal is 20 g).
5-7 days after inoculation (Since U937 tumor grows fast, observe once every 3 days), when the tumor grew to 100-200 mm^3, the mice were grouped and administered the drugs, and excluded the animals with too large or too small tumors. The mice were randomly divided into a medication group and a solvent group, with 6 mice in each group. The initial tumor volume and body weight were recorded on the day of grouping.
The administration cycle was 10 days, and daily administration was applied. The body weight and tumor volume of animals were measured once every 2 days. The formula for calculating tumor volume is: V=π/6*a*b*b (wherein a and b are the length and width of the tumor, respectively). The next day after the end of administration, the animal was weighed and the tumor volume was measured; and then the animal was sacrificed and the tumor was dissected to weighed. The tumor body was fixed with neutral formalin for pathological observation. Animal blood samples were collected for routine blood analysis according to experimental needs, and the main organs of the animals were collected for pathological analysis. At the end of the study, all animals were euthanized and the tumors, livers, kidneys, and lungs of […] were collected for further analysis.

Data set [2] has as its system U937 cells. Put plainly: Cell apoptosis detection in U937 cells. It counts as cell-based, human. The following applies: 48 hours. On the procedure:
Cell apoptosis detection: Took cells in good growth status and adjusted the density to 8×10^5 cells/mL, evenly distributed them into 6-well plates, 2 mL per well. Then the compound was diluted in gradient and added to the cell suspension, and placed in the incubator for 48 hours. PE coupled Annexin V apoptosis detection kit was used for staining in this experiment. After 48 hours, cells were collected into a 15 mL centrifuge tube, and the 6-well plate was washed twice with PBS. The washing solutions were merged into a 15 mL centrifuge tube, centrifuged at 1200 rpm for 5 minutes, and the supernatant was discarded. The cells were washed with 1.5 mL of cold PBS and resuspended and transferred to a 1.5 mL EP tube. Repeated washing with cold PBS once and after centrifugation at 1200 rpm for 5 minutes, discarded the supernatant. Added 100 μL of 1×Binding Buffer (PBS dilution) to resuspend the cells. Added 2.5 μL of Annexin V-PE and 2.5 μL 7-AAD, mixed gently and reacted at room temperature in the dark for 15 minutes. Added 400 μL of 1× Binding Buffer, and then perform detection with an up-flow cytometry within 1 hour. Note: It is necessary to set up a single label control tube with apoptotic cells, and sample tubes with the same conditions; place the stained samples on ice.

The target of the next data set is JAK2 (Homo sapiens (Human), UniProt O60674). Put plainly: Z′-Lyte kinase inhibitory activity test. It counts as biochemical. The following applies: ATP concentration Km. Summed up: (§1)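 Compounds (10 μM top final, 3-fold, 10 points, duplicate wells) were incubated with titrated kinase, ATP and 2 μM peptide at 30 °C for 1.5 h in HEPES pH 7.5/MgCl2/EGTA/Brij-35 buffer. Development followed for 1 h; phosphorylation ratio gave kinase inhibition, experiments repeated at least thrice.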
JAK2, sequence (O60674 whole entry): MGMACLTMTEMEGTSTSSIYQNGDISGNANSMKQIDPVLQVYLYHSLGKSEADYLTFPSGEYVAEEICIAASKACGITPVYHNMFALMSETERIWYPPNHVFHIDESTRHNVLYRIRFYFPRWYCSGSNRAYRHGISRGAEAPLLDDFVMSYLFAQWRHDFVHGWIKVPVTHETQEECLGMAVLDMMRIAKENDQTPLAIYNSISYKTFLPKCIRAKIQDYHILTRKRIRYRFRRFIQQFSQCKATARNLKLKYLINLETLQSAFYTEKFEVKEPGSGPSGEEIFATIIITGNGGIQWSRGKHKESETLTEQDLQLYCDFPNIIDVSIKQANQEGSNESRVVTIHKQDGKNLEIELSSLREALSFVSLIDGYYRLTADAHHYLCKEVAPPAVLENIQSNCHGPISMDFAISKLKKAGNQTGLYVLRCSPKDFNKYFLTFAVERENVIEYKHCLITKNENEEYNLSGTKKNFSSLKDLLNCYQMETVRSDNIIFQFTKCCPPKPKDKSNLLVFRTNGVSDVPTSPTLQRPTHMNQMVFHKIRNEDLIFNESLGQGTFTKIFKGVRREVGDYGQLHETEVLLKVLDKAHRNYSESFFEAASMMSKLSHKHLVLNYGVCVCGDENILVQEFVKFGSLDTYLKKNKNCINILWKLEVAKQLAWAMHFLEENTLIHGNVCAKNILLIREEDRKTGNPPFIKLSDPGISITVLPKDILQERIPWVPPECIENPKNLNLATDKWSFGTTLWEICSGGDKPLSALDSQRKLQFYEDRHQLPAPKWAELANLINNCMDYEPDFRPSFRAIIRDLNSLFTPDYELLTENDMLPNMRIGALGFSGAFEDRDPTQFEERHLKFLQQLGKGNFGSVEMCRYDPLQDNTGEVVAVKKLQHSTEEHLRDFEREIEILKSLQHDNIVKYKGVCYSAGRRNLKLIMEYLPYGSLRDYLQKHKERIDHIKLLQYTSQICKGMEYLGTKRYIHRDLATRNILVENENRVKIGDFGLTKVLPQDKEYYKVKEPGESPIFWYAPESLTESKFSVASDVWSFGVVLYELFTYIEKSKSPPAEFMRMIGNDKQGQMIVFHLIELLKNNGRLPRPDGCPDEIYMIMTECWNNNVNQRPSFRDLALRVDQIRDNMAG

In the next data set the target is JAK1 (Homo sapiens (Human), UniProt P23458). Put plainly: Z′-Lyte kinase inhibitory activity test. It counts as biochemical. Conditions: ATP concentration Km. The procedure, abridged: as §1
JAK1, sequence (P23458 whole entry): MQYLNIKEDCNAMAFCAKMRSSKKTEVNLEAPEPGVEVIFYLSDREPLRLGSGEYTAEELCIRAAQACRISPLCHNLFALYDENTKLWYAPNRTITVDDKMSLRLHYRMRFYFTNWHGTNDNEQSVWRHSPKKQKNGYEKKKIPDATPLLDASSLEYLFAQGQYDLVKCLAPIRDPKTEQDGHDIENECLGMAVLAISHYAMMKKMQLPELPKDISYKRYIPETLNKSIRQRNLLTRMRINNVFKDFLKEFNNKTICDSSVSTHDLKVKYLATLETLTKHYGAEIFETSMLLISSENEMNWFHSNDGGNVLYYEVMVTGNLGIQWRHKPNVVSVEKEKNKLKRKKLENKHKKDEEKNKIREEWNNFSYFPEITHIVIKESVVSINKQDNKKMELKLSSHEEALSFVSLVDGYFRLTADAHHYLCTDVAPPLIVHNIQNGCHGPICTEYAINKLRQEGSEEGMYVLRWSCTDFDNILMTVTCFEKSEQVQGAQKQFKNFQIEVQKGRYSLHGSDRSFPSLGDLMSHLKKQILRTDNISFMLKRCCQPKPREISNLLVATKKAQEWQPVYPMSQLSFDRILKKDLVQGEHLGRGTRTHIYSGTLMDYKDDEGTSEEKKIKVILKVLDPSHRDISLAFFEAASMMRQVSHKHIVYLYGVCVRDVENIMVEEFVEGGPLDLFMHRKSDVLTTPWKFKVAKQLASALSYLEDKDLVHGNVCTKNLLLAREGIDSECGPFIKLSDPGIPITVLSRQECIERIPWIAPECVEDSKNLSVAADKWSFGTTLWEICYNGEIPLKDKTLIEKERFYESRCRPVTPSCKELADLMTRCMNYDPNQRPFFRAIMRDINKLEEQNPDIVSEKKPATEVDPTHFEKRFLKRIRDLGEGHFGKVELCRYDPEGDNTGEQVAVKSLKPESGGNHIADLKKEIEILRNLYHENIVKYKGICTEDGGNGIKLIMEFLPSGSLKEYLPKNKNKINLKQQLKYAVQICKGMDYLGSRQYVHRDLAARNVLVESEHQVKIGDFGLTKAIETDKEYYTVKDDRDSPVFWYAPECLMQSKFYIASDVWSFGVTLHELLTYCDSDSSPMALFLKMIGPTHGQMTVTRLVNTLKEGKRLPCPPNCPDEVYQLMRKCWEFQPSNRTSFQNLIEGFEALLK
A further data set addresses TYK2 (Homo sapiens (Human), UniProt P29597). Put plainly: Z′-Lyte kinase inhibitory activity test. The data set is classed as biochemical. The following applies: ATP concentration Km. Summed up: as §1
The target of a further data set is JAK3 (Homo sapiens (Human), UniProt P52333). Description: Z′-Lyte kinase inhibitory activity test. It counts as biochemical. Summed up: as §1
JAK3, sequence (P52333 whole entry): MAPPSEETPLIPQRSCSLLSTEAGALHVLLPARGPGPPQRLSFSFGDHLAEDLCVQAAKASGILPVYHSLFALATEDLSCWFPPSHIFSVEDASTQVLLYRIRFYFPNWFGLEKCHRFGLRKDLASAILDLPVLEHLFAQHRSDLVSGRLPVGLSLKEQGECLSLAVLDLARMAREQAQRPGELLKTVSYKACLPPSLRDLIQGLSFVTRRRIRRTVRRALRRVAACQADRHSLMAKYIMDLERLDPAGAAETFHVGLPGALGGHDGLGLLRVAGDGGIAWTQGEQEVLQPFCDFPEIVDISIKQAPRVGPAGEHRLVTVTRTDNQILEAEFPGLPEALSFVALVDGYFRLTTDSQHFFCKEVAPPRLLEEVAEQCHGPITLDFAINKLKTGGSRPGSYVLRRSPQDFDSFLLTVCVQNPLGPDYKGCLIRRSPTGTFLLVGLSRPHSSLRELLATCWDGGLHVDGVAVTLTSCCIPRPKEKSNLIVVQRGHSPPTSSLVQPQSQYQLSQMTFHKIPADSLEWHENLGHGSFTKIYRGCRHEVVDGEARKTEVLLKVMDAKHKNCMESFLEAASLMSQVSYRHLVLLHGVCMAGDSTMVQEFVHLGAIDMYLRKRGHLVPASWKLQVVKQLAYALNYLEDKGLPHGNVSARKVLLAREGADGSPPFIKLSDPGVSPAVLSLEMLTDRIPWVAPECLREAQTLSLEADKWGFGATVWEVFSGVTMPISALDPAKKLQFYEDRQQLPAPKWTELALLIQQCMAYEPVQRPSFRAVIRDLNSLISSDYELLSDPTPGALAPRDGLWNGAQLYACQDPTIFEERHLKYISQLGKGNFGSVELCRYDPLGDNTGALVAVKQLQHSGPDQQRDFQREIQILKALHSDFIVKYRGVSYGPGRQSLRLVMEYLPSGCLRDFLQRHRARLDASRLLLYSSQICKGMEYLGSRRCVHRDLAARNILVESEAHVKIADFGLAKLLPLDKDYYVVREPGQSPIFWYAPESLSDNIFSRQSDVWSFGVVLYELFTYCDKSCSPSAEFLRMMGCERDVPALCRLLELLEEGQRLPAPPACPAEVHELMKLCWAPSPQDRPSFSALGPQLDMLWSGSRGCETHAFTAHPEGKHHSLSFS
Data set [3] has as its system phosphorylation of JAK3 and STAT5 in U937 cells. Put plainly: Wash out experiment in U937 cells. It counts as cell-based, human. The following applies: 200 nM 10 hours then removed. On the procedure: Cell line: human acute myeloid leukemia cell line U937
After 200 nM test compound LS6-45 was co-incubated with U937 cells for 10 hours, the supernatant was discarded by centrifugation. The cells were collected and washed with PBS to remove residual compounds. After adding fresh culture medium, the cells continued to be cultured in a 37° C. incubator. Cells were collected at 0, 0.5, 1, 2, 4, 8, 12, and 16 hours, and protein was extracted for Western blot analysis.

pIC50: −log10 of the molar value.

In general, pIC50 refers to the IC50 on a negative log10 scale, so that one unit is a factor of ten. A low value points to a large IC50.

TYK2, sequence (P29597 whole entry): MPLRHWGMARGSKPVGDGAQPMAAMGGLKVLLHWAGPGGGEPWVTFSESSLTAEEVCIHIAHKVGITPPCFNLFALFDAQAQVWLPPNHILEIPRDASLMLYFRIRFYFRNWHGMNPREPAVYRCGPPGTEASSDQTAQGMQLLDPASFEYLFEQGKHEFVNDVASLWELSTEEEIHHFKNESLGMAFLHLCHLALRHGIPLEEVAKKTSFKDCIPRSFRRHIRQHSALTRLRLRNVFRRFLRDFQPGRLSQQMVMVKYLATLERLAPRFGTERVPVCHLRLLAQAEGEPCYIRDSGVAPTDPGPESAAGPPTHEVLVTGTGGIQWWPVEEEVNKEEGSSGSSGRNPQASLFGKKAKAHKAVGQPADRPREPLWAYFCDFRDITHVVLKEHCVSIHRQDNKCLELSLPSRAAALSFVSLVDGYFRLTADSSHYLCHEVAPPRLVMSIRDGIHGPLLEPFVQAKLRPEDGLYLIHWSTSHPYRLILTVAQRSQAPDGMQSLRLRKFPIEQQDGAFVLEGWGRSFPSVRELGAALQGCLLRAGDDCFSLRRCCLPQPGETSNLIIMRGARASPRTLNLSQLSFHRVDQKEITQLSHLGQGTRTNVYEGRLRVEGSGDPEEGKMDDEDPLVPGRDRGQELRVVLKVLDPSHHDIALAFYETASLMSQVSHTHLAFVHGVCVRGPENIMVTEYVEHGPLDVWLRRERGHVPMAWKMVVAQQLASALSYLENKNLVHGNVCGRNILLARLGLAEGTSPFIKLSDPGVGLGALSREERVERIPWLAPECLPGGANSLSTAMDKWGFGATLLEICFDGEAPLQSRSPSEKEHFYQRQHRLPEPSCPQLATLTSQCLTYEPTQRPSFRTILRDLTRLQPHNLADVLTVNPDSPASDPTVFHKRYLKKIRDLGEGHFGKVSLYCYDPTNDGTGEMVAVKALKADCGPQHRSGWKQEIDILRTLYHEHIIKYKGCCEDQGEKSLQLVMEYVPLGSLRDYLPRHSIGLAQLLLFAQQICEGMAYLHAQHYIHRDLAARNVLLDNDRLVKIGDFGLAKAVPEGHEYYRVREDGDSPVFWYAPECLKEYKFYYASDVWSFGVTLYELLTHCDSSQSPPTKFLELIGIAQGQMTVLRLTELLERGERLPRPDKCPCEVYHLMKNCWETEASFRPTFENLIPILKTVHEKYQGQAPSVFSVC

On to `C=CC(=O)Nc1cc(Nc2ncc(Cl)c(O[C@@H]3CO[C@H]4[C@@H]3OC[C@H]4OC)n2)ccc1N(C)CCN(C)C` [LS 6-45], for which the “toxic side effects and body weight” value in the data set with U937 cells [1] (CB-17 SCID mice, during the administration period) is “no toxic side effects and no signs of weight loss”. In addition, the tumor growth result in the data set on U937 cells [1] (U937 tumor in CB-17 SCID mice, 50 mg/kg dose group, oral bid) is listed as “completely stagnant or even regressed”. Besides, the “growth rate of tumors” value in the data set with U937 cells [1] (U937 tumor in CB-17 SCID mice, during 10 days administration, versus control group) is “significantly lower than that of the control group”. Besides, the “phosphorylation of JAK3, STAT3, STAT5 and cell cycle related proteins in tumor tissues (Western blot)” value in the data set on U937 cells [1] (tumor tissues of experimental mice, compared with control group) was “significant inhibitory effects”. The cell apoptosis result with U937 cells [2] was “No apoptosis was observed”. Besides, the negative logarithm of the IC50 (pIC50) at JAK2 is 5.69; on JAK1 it was 4.89; on TYK2, 5.96; against JAK3 (ATP concentration 1 mM) it was 8.82; against JAK3 (ATP concentration Km) it was 8.90. Also, the results for the “phosphorylation levels of JAK3 and STAT5 after wash out” value in data set [3] (between 8-12 hours) and in data set [3] (within 8 hours) were “slowly recovered” and “continuously inhibited”, respectively.

Values taken from US20230348487A1, “2-AMINOPYRIMIDINE COMPOUND AND PHARMACEUTICAL COMPOSITION THEREOF AND APPLICATION THEREOF” (GUANGZHOU SALUSTIER BIOSCIENCES CO., LTD., priority 2021, published 2023).
